Source: US10494683B2, “Nitrate- and nitrite-reducing probiotic feed additive” (The United States of America, as represented by the …, priority 2015, dated 2019)

Legend:
[1] = test system: Holstein steers; experiment: Ruminally cannulated steers given NaNO3 with or without strain NRRL 67118; assay type: in vivo; conditions: rumen samples of treated steers incubated in vitro
[2] = test system: mixed ruminal microorganisms; experiment: CH4 production in vitro with mixed ruminal microorganisms; assay type: cell-based

| Compound | dCH4/dt ([1]; 83 mg NaNO3/kg body weight daily, Control 4.13) [b umol/ml per h] | Nitrate reduction ([1]; Control 0.42) [e mM/hr] | Nitrite reduction ([1]; Control 1.21) [c mM/hr] | CH4 production [2] |
| --- | --- | --- | --- | --- |
| O=[N+]([O-])[O-].[Na+] [NO3, NaNO3] | 2.22 | 0.54 | 1.38 | – |
| O=N[O-].[Na+] [NO2, NaNO2] | – | – | – | zero |
